This test deals with total α-tubulin. Briefly: cell-based assay of MT-stabilization: total α-tubulin in QBI293 cell lysates by ELISA. As to conditions: QB1293 cells; for fold induction at 1 µM / fold induction at 10 µM: QBI293, 4 h; for fold induction at 10 µM: read-out: α-Tub 10 μM (fold-change in total α-tubulin). As for the experimental part: All test compounds were evaluated in a previously described cell-based assay of MT-stabilization (see Kovalevich, J., et al. (2016) Characterization of Brain-Penetrant Pyrimidine-Containing Molecules with Differential Microtubule-Stabilizing Activities Developed as Potential Therapeutic Agents for Alzheimer's Disease and Related Tauopathies. J Pharmacol Exp Ther 357, 432-450, incorporated herein by reference), in which compound-dependent changes in tubulin polymerization and total tubulin levels were determined after 4 h of incubation of QBI293 cells with 1 and 10 μM compound via quantification of acetylated α-tubulin and total tubulin in cell lysates by ELISA.
Novel C6 nitrile- and alkyne-substituted triazolopyrimidine examples that have improved in vitro activity relative to previously described examples, with the general structure depicted in Formula I. The activity of the novel C6-nitrile substituted compounds were tested in a previously described cellular assay of MT-stabilization (Kovalevich, J., et al. (2016)). As summarized in Table 2. below, eighteen examples were synthesized and tested. In all cases, these compounds were confirmed to be active Class I triazolopyrimidines. […] Table 2 provides fold-changes in acetylated α-tubulin and total α-tubulin levels in QB1293 cells after 4 h incubation with test compounds at either 1 or 10 μM. Data are expressed as the fold-change relative to vehicle-treated cells. *p<0.05 and **p<0.01 by one-way ANOVA.
Compounds produced according to the preceding synthetic schemes were for microtubule stabilization. Fold-changes in acetylated α-tubulin (AcTub) and α-tubulin (α-Tub) levels in QB1293 cells after 4 h incubation with test compounds at either 1 or 10 μM. Reported values for AcTub and α-Tub represent the fold-change over control (DMSO)-treated cells (*p<0.05 and **p<0.01 by one-way ANOVA); numbers in parentheses represent the fold-change of AcTub over positive control-treated cells (i.e., 100 nM of cevipabulin). Changes of +/−15% of control are deemed to be within the day-to-day assay variability and non-significant.

Setting [1] is: 4 h incubation, 1 μM compound, relative to vehicle-treated cells, read-out: α-Tub 1 μM (fold-change in total α-tubulin).
[2] abbreviates: 4 h incubation, 10 μM compound, relative to vehicle-treated cells.
[3] abbreviates: 4 h incubation, 1 μM compound, relative to vehicle-treated cells.
The mark [4] stands for this setting: Table 4, 4 h, 1 μM, read-out: α-Tub l μM (fold-change over control (DMSO)-treated cells).

Where two headings read alike, the source gives them in different places.

On to `C[C@H](Nc1c(-c2c(F)cc(C#N)cc2F)c(Cl)nc2ncnn12)C(F)(F)F` [Compound 19, (S)-4-(5-Chloro-7-((1,1,1-trifluoropropan-2-yl)amino)-[1,2,4]triazolo[1,5-a]pyrimidin-6-yl)-3,5-difluorobenzonitrile], for which the fold induction at 1 µM under setting [1] was 0.94 ± 0.02. Further, the fold induction at 10 µM under setting [2] turned out to be 0.95 ± 0.05.

For `C[C@H](Nc1c(-c2ccc(C#N)cc2F)c(Cl)nc2ncnn12)C(F)(F)F` [Compound 61, (S)-4-(5-Chloro-7-((1,1,1-trifluoropropan-2-yl)amino)-[1,2,4]triazolo[1,5-a]pyrimidin-6-yl)-3-fluorobenzonitrile], the fold induction at 1 µM under setting [1] came out at 1. The fold induction at 10 µM under setting [2] was 1.

For the compound `CC(C)[C@@H](Nc1c(-c2ccc(C#N)cc2F)c(Cl)nc2ncnn12)C(F)(F)F` [Compound 63, (R)-4-(5-chloro-7-((1,1,1-trifluoro-3-methylbutan-2-yl)amino)-[1,2,4]triazolo[1,5-a]pyrimidin-6-yl)-3-fluorobenzonitrile], under setting [1], the fold induction at 1 µM was determined as 0.99. Under setting [2], the fold induction at 10 µM was 0.98.

`CC(C)[C@@H](C)Nc1c(-c2c(F)cc(C#N)cc2F)c(Cl)nc2ncnn12` [Compound 66, (R)-4-(5-chloro-7-((3-methylbutan-2-yl)amino)-[1,2,4]triazolo[1,5-a]pyrimidin-6-yl)-3,5-difluorobenzonitrile]: the fold induction at 1 µM under setting [1] was 0.93. Further, under setting [2], the fold induction at 10 µM is 0.94.

For the compound `CC(C)[C@@H](C)Nc1c(-c2ccc(C#N)cc2F)c(Cl)nc2ncnn12` [Compound 68, (R)-4-(5-chloro-7-((3-methylbutan-2-yl)amino)-[1,2,4]triazolo[1,5-a]pyrimidin-6-yl)-3-fluorobenzonitrile], the “α-Tub 1 μM (fold-change in total α-tubulin)” value (4 h incubation, 1 μM compound, relative to vehicle-treated cells, listed as 52016 (68)) was 0.95 +/− 0.02 fold-change. The “α-Tub 10 μM (fold-change in total α-tubulin)” value (4 h incubation, 10 μM compound, relative to vehicle-treated cells, listed as 52016 (68)) was 0.92 +/− 0.01 fold-change.

Regarding `N#Cc1cc(F)c(-c2c(Cl)nc3ncnn3c2N2CCCCCC2)c(F)c1` [Compound 75, 4-(7-(Azepan-1-yl)-5-chloro-[1,2,4]triazolo[1,5-a]pyrimidin-6-yl)-3,5-difluorobenzonitrile], the fold induction at 1 µM under setting [1] is 0.98 ± 0.03. Moreover, the fold induction at 10 µM under setting [2] amounted to 0.99.

As to `N#Cc1ccc(-c2c(Cl)nc3ncnn3c2N2CCCCCC2)c(F)c1` [Compound 76, 4-(7-(Azepan-1-yl)-5-chloro-[1,2,4]triazolo[1,5-a]pyrimidin-6-yl)-3-fluorobenzonitrile], the “α-Tub 1 μM (fold-change in total α-tubulin)” value under setting [3] is on record as 1.04 +/− 0.05 fold-change. Also, the fold induction at 10 µM under setting [2] came out at 0.99.

With `N#Cc1cc(F)c(-c2c(Cl)nc3ncnn3c2N2CCCCCCC2)c(F)c1` [Compound 77, 4-(7-(azocan-1-yl)-5-chloro-[1,2,4]triazolo[1,5-a]pyrimidin-6-yl)-3,5-difluorobenzonitrile], the “α-Tub 1 μM (fold-change in total α-tubulin)” value under setting [3] is recorded as 1.01 +/− 0.02 fold-change. The fold induction at 10 µM under setting [2] was found to be 0.99.

Turning to `C#Cc1cc(F)c(-c2c(Cl)nc3ncnn3c2N[C@H](C)C(C)C)c(F)c1` [TAL-487, (R)-5-chloro-6-(4-ethynyl-2,6-difluorophenyl)-N-(3-methylbutan-2-yl)-[1,2,4]triazolo[1,5-a]pyrimidin-7-amine], the fold induction at 1 µM under setting [4] was determined as 0.98.

Consider `CC(C)[C@@H](C)Nc1c(-c2c(F)cc(C#CCN(C)C)cc2F)c(Cl)nc2ncnn12` [TAL-546, (R)-5-chloro-6-(4-(3-(dimethylamino)prop-1-yn-1-yl)-2,6-difluorophenyl)-N-(3-methylbutan-2-yl)-[1,2,4]triazolo[1,5-a]pyrimidin-7-amine], for which the fold induction at 1 µM under setting [4] came out at 0.98.

With `C[C@@H](Nc1c(-c2c(F)cc(C#CCCCO)cc2F)c(Cl)nc2ncnn12)C(C)(C)C` [TAL-601, (R)-5-(4-(5-chloro-7-((3,3-dimethylbutan-2-yl)amino)-[1,2,4]triazolo[1,5-a]pyrimidin-6-yl)-3,5-difluorophenyl)pent-4-yn-1-ol], the fold induction at 1 µM under setting [4] worked out at 1.18.

The values are drawn from patent publication US20230167121A1, “SUBSTITUTED {1,2,4,} TRIAZOLO{1,5-A} PYRIMIDINE COMPOUNDS AND USE IN STABILIZING MICROTUBULES” (THE TRUSTEES OF THE UNIVERSITY OF PENNSYLVANIA, priority 2020, published 2023).
